System: MDA-MB-231 cells
Experiment: Caspase 3/7 activity in MDA-MB-231 cells
Assay type: cell-based
Description: Approximately 5,000 MDA-MB-231 cells were plated into white, cell-culture treated, 96-well plates (Corning). At ˜60% confluency, cells were treated with dilutions of LNA-210, Scr-LNA, TGP-210, or TGP-210-RL and then placed under hypoxic or normoxic conditions. After 48 h, caspase 3/7 activity was measured using a Caspase-Glo 3/7 kit (Promega) according to the manufacturer's protocol. Alternatively, MDA-MB-231 cells were transfected with a plasmid overexpressing pre-miR-210 (Genecopoeia; HmiR0167-MR04) using Lipofectamine 2000 (Invitrogen). After 5 h of transfection, cells were plated into white, cell-culture treated 96-well plates (Corning) and then treated as described above. Fold change in Caspase activity was calculated by normalizing treated samples to the untreated samples after subtracting background sample values.

In the case of Targapremir-210 [TGP-210], the “Apoptotic stimulation (caspase activity)” value (hypoxic MDA-MB-231 cells, 48 h, TGP-210-RL at 500 nM) is reported as “similar” and the “Apoptosis upon miR-210 overexpression” value (miR-210 overexpressed background) is reported as “no longer stimulated apoptosis”.

Reference: US20210102200A1, “SMALL MOLECULE TARGETED RECRUITMENT OF A NUCLEASE TO RNA” (The Scripps Research Institute, priority 2018, published 2021)
